Consider 13 compounds from PubChem BioAssay (NCI).

Test systems include IGROV1 ovarian; 786-0 renal; UACC-257 melanoma; RXF 393 renal; COLO 205 colon; HCT-116 colon; SK-MEL-28 melanoma.
Assay in all cases: inhibition of tumour cell growth, NCI panel, 48 h

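Grown in 96-well plates, cells were treated for 48 hours with each compound at five concentrations. Insufficient inhibition: endpoint recorded as highest concentration tested. GI50 = concentration required for 50% inhibition of growth. TGI denotes the concentration required for complete inhibition of growth.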

On to `Nc1nc(-c2ccccc2Cl)cc(-c2ccc(Cl)cc2Cl)n1`, for which the GI50 in the assay with IGROV1 ovarian was 12.3 µM; in the assay on 786-0 renal, 20.2 µM; in the assay with UACC-257 melanoma it was 11.9 µM; with RXF 393 renal, 2.67 µM; in the assay with COLO 205 colon, 3.52 µM; in the assay with HCT-116 colon it was 4.27 µM. Further, the GI50 with SK-MEL-28 melanoma was 20.9 µM. The TGI in the assay on IGROV1 ovarian was more than 100 µM; in the assay on 786-0 renal, more than 100 µM; in the assay with UACC-257 melanoma, 55.2 µM; in the assay on RXF 393 renal, 10.7 µM; in the assay on COLO 205 colon it was 15.5 µM; in the assay with HCT-116 colon it was more than 100 µM. The compound also gave a TGI in the assay on SK-MEL-28 melanoma of more than 100 µM.
On to `CC(=O)SC(C[N+](=O)[O-])c1ccccc1` (stereo not drawn), for which the TGI with IGROV1 ovarian amounted to 5.02 µM; in the assay on 786-0 renal, 23.7 µM; in the assay on UACC-257 melanoma, 24.5 µM; in the assay on RXF 393 renal, 4.01 µM; in the assay with COLO 205 colon, 7.47 µM; with HCT-116 colon, 4.48 µM. The same compound gave a TGI in the assay on SK-MEL-28 melanoma of 11.1 µM.
For the compound `OC(c1cc2c(Cl)cc(Cl)cc2c2cc(C(F)(F)F)ccc12)C1CCCCN1` (stereo not drawn), the GI50 is 1.74 µM in the assay with IGROV1 ovarian; 1.66 µM in the assay on 786-0 renal; 1.92 µM with UACC-257 melanoma; 1.61 µM with RXF 393 renal; 1.88 µM with COLO 205 colon; 1.67 µM in the assay with HCT-116 colon. In the assay with SK-MEL-28 melanoma, the GI50 was 1.96 µM. The TGI in the assay with IGROV1 ovarian was found to be 3.58 µM; in the assay with 786-0 renal, 3.5 µM; in the assay on UACC-257 melanoma it was 3.7 µM; in the assay on RXF 393 renal, 3.12 µM; in the assay on COLO 205 colon, 3.55 µM; in the assay with HCT-116 colon, 3.37 µM. The TGI with SK-MEL-28 melanoma worked out at 3.62 µM.
Turning to `CN(Cc1cccc(Cl)c1)c1ccc(CO)c(Cl)c1`, the GI50 was 0.448 µM in the assay on IGROV1 ovarian; 12.4 µM in the assay with 786-0 renal; 0.569 µM with UACC-257 melanoma; 8.55 µM in the assay on RXF 393 renal; 7.39 µM in the assay with COLO 205 colon; 0.481 µM in the assay on HCT-116 colon. For the same compound, the GI50 with SK-MEL-28 melanoma was 16.4 µM. The TGI was 4.16 µM in the assay with IGROV1 ovarian; 27.2 µM with 786-0 renal; 2.15 µM in the assay with UACC-257 melanoma; 23.4 µM with RXF 393 renal; 20.9 µM with COLO 205 colon; 11.3 µM in the assay with HCT-116 colon. For the same compound, the TGI in the assay on SK-MEL-28 melanoma is 43.9 µM.
For the compound `CN(CC(=O)O)Cc1c[nH]c2ccccc12`, the TGI in the assay with IGROV1 ovarian, in the assay with 786-0 renal, with UACC-257 melanoma, with RXF 393 renal, in the assay with COLO 205 colon and in the assay with HCT-116 colon was more than 100 µM throughout. In addition, in the assay with SK-MEL-28 melanoma, the TGI is more than 100 µM.
With `COc1cccc(/C=N/[N-]C(N)=O)c1[O-].[Cu+2].c1ccncc1`, the TGI in the assay with IGROV1 ovarian was 49.9 µM; with 786-0 renal, 24 µM; in the assay with UACC-257 melanoma it was more than 100 µM; in the assay on RXF 393 renal it was 28.6 µM; in the assay on COLO 205 colon, 32.2 µM; in the assay on HCT-116 colon, 32 µM. In the assay on SK-MEL-28 melanoma, this compound returned a TGI of 33.9 µM.
As to `COC(=O)c1cccc(COc2ccc([N+](=O)[O-])cc2Cl)c1`, the TGI with IGROV1 ovarian, in the assay on 786-0 renal, with UACC-257 melanoma, in the assay on RXF 393 renal, with COLO 205 colon and in the assay with HCT-116 colon was more than 100 µM throughout. In the assay on SK-MEL-28 melanoma, this compound gave a TGI of more than 100 µM.
Regarding `O=c1c(Br)ccc(Br)cc1Br`, the GI50 with IGROV1 ovarian was 2.4 µM; in the assay on 786-0 renal, 2.07 µM; in the assay on UACC-257 melanoma it was 1.91 µM; with RXF 393 renal, 1.65 µM; in the assay with COLO 205 colon, 0.216 µM; in the assay on HCT-116 colon, 1.51 µM. The GI50 with SK-MEL-28 melanoma was 2.55 µM. Also, the TGI with IGROV1 ovarian turned out to be 5.64 µM; with 786-0 renal it was 3.7 µM; in the assay with UACC-257 melanoma, 3.49 µM; with RXF 393 renal, 3.06 µM; in the assay with COLO 205 colon it was 0.442 µM; with HCT-116 colon it was 2.88 µM. Moreover, in the assay on SK-MEL-28 melanoma, the TGI was determined as 5.83 µM.
In the case of `CC(=O)O[C@H]1CC[C@@]2(C)[C@@H](CC[C@@H]3[C@@H]2CC(=O)[C@@]2(C)[C@H]3C[C@@H]3CC(C)=CC(=O)[C@@H]32)C1`, the TGI in the assay on IGROV1 ovarian was more than 100 µM; with 786-0 renal, more than 100 µM; with UACC-257 melanoma, more than 100 µM; in the assay with RXF 393 renal, 86.7 µM; in the assay on COLO 205 colon it was more than 100 µM; with HCT-116 colon, more than 100 µM. The same compound gave a TGI in the assay with SK-MEL-28 melanoma of more than 100 µM.
Consider `COc1cc2c(cc1OC)-c1c(c3ccc([N+](=O)[O-])cc3c(=O)n1CCCBr)C2=O`, for which the GI50 with IGROV1 ovarian was 51.8 µM; with 786-0 renal, 2.93 µM; in the assay on UACC-257 melanoma it was 37.2 µM; in the assay on RXF 393 renal, 44.3 µM; with COLO 205 colon it was more than 100 µM; in the assay on HCT-116 colon, 4.31 µM. Moreover, the GI50 with SK-MEL-28 melanoma is more than 100 µM. The TGI in the assay with IGROV1 ovarian, with 786-0 renal, in the assay with UACC-257 melanoma, in the assay with RXF 393 renal, in the assay with COLO 205 colon and with HCT-116 colon was more than 100 µM in each case. For the same compound, the TGI with SK-MEL-28 melanoma was more than 100 µM.
On to `COc1ccc(/C=C/c2cnnc3ccccc23)cc1OC`, for which the TGI with IGROV1 ovarian, with 786-0 renal, in the assay with UACC-257 melanoma, in the assay on RXF 393 renal, in the assay on COLO 205 colon and in the assay with HCT-116 colon was more than 10 µM in each case. The compound further yielded a TGI in the assay with SK-MEL-28 melanoma of more than 10 µM.
Turning to `Nc1nc(N)c(N=Nc2ccc([As](=O)(O)O)c(O)c2)c(N)n1`, the TGI was more than 100 µM with IGROV1 ovarian; more than 100 µM in the assay with 786-0 renal; more than 100 µM in the assay with UACC-257 melanoma; more than 29.8 µM in the assay with RXF 393 renal; more than 100 µM in the assay on COLO 205 colon; more than 33.7 µM with HCT-116 colon. The compound further gave a TGI in the assay with SK-MEL-28 melanoma of more than 100 µM.
For the compound `COc1ccc2c(c1)cn1c3ccc(OC)cc3[nH]c(=O)c21`, the GI50 in the assay on IGROV1 ovarian is less than 0.0155 µM; with 786-0 renal it was less than 0.0231 µM; in the assay with UACC-257 melanoma, 14.6 µM; in the assay on RXF 393 renal, 0.0257 µM; with COLO 205 colon, less than 0.0175 µM; with HCT-116 colon, less than 0.0157 µM. For the same compound, the GI50 in the assay on SK-MEL-28 melanoma is less than 0.0285 µM. Besides, the TGI in the assay on IGROV1 ovarian turned out to be 0.813 µM; in the assay on 786-0 renal, 1.56 µM; with UACC-257 melanoma, 29.5 µM; in the assay on RXF 393 renal, 1.79 µM; in the assay on COLO 205 colon it was 0.0294 µM; with HCT-116 colon it was 1.05 µM. In the assay with SK-MEL-28 melanoma, this compound displayed a TGI of 2.15 µM.
